Measurements from patent US20230107642A1 (Erasca, Inc., priority 2020, published 2023).

Biological target: T1, Cys12 of the KRAS 4B G12C protein (Homo sapiens, UniProt P01116, G12C)
T1 construct: This protein contained 188 amino acids in total, including an N-terminal 6-Histidine tag; made in house; host or cells: E. coli BL21
Experiment: In vitro covalent adduct formation (CAF) assay, LC-MS intact mass
Format: binding
Details: after 60 min
How it was run: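 Percent covalent modification from intact-mass LC-MS, by relative free versus adducted protein (adducts within 1 Da of expected mass). Reaction: 10 μM compound with 5 μM E. coli-expressed, GDP-exchanged KRAS 4B G12C in TBS pH 7.4, 4% DMSO, 1 h at 22° C.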

Row | Compound | CAF (% binding after 60 min)
1 | C=CC(=O)N1CCN(c2nc(=O)n3c4c(c(-c5cc(Cl)c(F)cc5F)c(C(F)(F)F)cc24)SC[C@@H](OCCOC)C3)CC1 [Example 1023, (3S)-8-(4-acryloylpiperazin-1-yl)-11-(5-chloro-2,4-difluorophenyl)-3-(2-methoxyethoxy)-10-(trifluoromethyl)-3,4-dihydro-2H,6H-[1,4]thiazepino[2,3,4-ij]quinazolin-6-one] | 97%
2 | C=CC(=O)N1[C@H](C)CN(c2nc(=O)n3c4c(c(-c5ccc(F)cc5)c(C(F)(F)F)cc24)SC[C@H](OCCOC)C3)C[C@@H]1C [Example 1024, (R)-8-((3S,5R)-4-acryloyl-3,5-dimethylpiperazin-1-yl)-11-(4-fluorophenyl)-3-(2-methoxyethoxy)-10-(trifluoromethyl)-3,4-dihydro-2H,6H-[1,4]thiazepino[2,3,4-ij]quinazolin-6-one] | 97%
3 | C=CC(=O)N1[C@H](C)CN(c2nc(=O)n3c4c(c(-c5ccc(F)cc5)c(C(F)(F)F)cc24)SC[C@@H](OCCOC)C3)C[C@@H]1C [Example 1025, (S)-8-((3S,5R)-4-acryloyl-3,5-dimethylpiperazin-1-yl)-11-(4-fluorophenyl)-3-(2-methoxyethoxy)-10-(trifluoromethyl)-3,4-dihydro-2H,6H-[1,4]thiazepino[2,3,4-ij]quinazolin-6-one] | 96%
4 | C=CC(=O)N1[C@H](C)CN(c2nc(=O)n3c4c(c(-c5ccc(F)cc5F)c(C(F)(F)F)cc24)SC[C@H](OCCOC)C3)C[C@@H]1C [Example 1026, (3R)-8-((3S,5R)-4-acryloyl-3,5-dimethylpiperazin-1-yl)-11-(2,4-difluorophenyl)-3-(2-methoxyethoxy)-10-(trifluoromethyl)-3,4-dihydro-2H,6H-[1,4]thiazepino[2,3,4-ij]quinazolin-6-one] | 95%
5 | C=CC(=O)N1[C@H](C)CN(c2nc(=O)n3c4c(c(-c5ccc(F)cc5F)c(C(F)(F)F)cc24)SC[C@@H](OCCOC)C3)C[C@@H]1C [Example 1027, (3S)-8-((3S,5R)-4-acryloyl-3,5-dimethylpiperazin-1-yl)-11-(2,4-difluorophenyl)-3-(2-methoxyethoxy)-10-(trifluoromethyl)-3,4-dihydro-2H,6H-[1,4]thiazepino[2,3,4-ij]quinazolin-6-one 3,4-dihydro-2H,6H-[1,4]thiazepino[2,3,4-ij]quinazolin-6-one] | 96%
6 | C=CC(=O)N1[C@H](C)CN(c2nc(=O)n3c4c(c(-c5ccc(F)c(Cl)c5)c(C(F)(F)F)cc24)SC[C@H](OCCOC)C3)C[C@@H]1C [Example 1028, (R)-8-((3S,5R)-4-acryloyl-3,5-dimethylpiperazin-1-yl)-11-(3-chloro-4-fluorophenyl)-3-(2-methoxyethoxy)-10-(trifluoromethyl)-3,4-dihydro-2H,6H-[1,4]thiazepino[2,3,4-ij]quinazolin-6-one] | 96%
7 | C=CC(=O)N1[C@H](C)CN(c2nc(=O)n3c4c(c(-c5ccc(F)c(Cl)c5)c(C(F)(F)F)cc24)SC[C@@H](OCCOC)C3)C[C@@H]1C [Example 1029, (S)-8-((3S,5R)-4-acryloyl-3,5-dimethylpiperazin-1-yl)-11-(3-chloro-4-fluorophenyl)-3-(2-methoxyethoxy)-10-(trifluoromethyl)-3,4-dihydro-2H,6H-[1,4]thiazepino[2,3,4-ij]quinazolin-6-one] | 96%
8 | C=CC(=O)N1[C@H](C)CN(c2nc(=O)n3c4c(c(-c5cc(Cl)c(F)cc5F)c(C(F)(F)F)cc24)SC[C@H](OCCOC)C3)C[C@@H]1C [Example 1030, (3R)-8-((3S,5R)-4-acryloyl-3,5-dimethylpiperazin-1-yl)-11-(5-chloro-2,4-difluorophenyl)-3-(2-methoxyethoxy)-10-(trifluoromethyl)-3,4-dihydro-2H,6H-[1,4]thiazepino[2,3,4-ij]quinazolin-6-one] | 96%
